Results taken from PMC6753678, “Fueling Open Innovation for Malaria Transmission-Blocking Drugs: Hundreds of Molecules Targeting Early Parasite Mosquito Stages” (Frontiers in Microbiology, 2019).
pIC50: −log10 of the molar value. Like-named read-outs stand apart in the source and are kept apart here.

Columns and labels:
[1] = test system: HepG2 cells; assay: HepG2 cytotoxicity assay
Procedure, shortened: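 Here viability after a 48 h compound incubation (37°C, humidified 5% CO2) is measured by fluorescence and expressed as percent inhibition, with doxorubicin at 50 μM and DMSO as the bounding controls.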

[2] = test system: P. falciparum late stage (stages IV-V) gametocytes; design: method as in Almela et al 2016; conditions: ref Almela et al 2016, read-out: Pf GCT ATP IC50, cited from earlier work
[3] = test system: HepG2 cells; conditions: ref Almela et al 2016, cited from earlier work; for HepG2 cytoxicity (Pf GCT ATP screen): HepG2 value reported with Pf GCT ATP screen; for HepG2 cytoxicity: HepG2 data listed with Pf GCT ATP screen
[4] = test system: P. falciparum late stage (stages IV-V) gametocytes; assay: P. falciparum late stage gametocyte ATP depletion assay (Pf GC-ATP); conditions: 1: YES; 0: NO
[5] = HepG2 cytotoxicity unified across screens, bounds (>) given as plain numbers
[6] = unified HepG2 value across the three screens
[7] = P. falciparum late stage gametocyte ATP assay

Structure (SMILES)	Unified cytotox [1, 5]	pIC50 ([2]; TCAMS library screen)	HepG2 cytoxicity (Pf GCT ATP screen) [3]	Is compound selective in assay? Pf GC-ATP active? [4]	Unified cytotox [1, 6]	pIC50 [2, 7]	HepG2 cytoxicity [3]
Cl.N=c1n(Cc2ccc(Cl)cc2)c2ccccc2n1CC(O)c1ccc(Cl)c(Cl)c1 (stereo not drawn) [TCMDC-123813]	6.50 µM	6.44	6.5 µM	1 (1: YES)	–	–	–
O=C(Nc1nc(-c2ccccn2)cc2ccccc12)c1cccc(Cl)c1 [TCMDC-123886]	–	6.30	>25 µM	1 (1: YES)	–	–	–
COc1ccc(C[C@H](N)C(=O)N[C@H]2[C@@H](O)[C@H](n3cnc4c(N(C)C)ncnc43)O[C@@H]2CO)cc1.Cl [TCMDC-123927]	2.69 µM	6.19	2.69 µM	0 (0: NO)	–	–	–
Cc1ccc(C)c(NC(=O)CC2C(=O)N(c3ccccc3)C(=S)N2Cc2ccco2)c1 (stereo not drawn) [TCMDC-124000]	–	5.89	>10 µM	1 (1: YES)	–	–	–
Cl.N=c1n(CCN2CCCCC2)c2ccccc2n1CC(O)c1ccc(Cl)c(Cl)c1 (stereo not drawn) [TCMDC-124064]	5.20 µM	5.49	5.2 µM	0 (0: NO)	–	–	–
CCCCCCCn1c(=N)n(CC(O)c2ccc(Cl)c(Cl)c2)c2ccccc21.Cl (stereo not drawn) [TCMDC-124065]	6.00 µM	5.69	6 µM	0 (0: NO)	–	–	–
CCCCOc1ccc(C(=O)C(CCC(CNC(C)(C)C)C(=O)c2ccc(OCCCC)cc2)CNC(C)(C)C)cc1.Cl (stereo not drawn) [TCMDC-124120]	3.10 µM	6.52	3.1 µM	1 (1: YES)	–	–	–
CCCCCOc1ccc(C(O)C(CCC(CN2CCCCCC2)C(O)c2ccc(OCCCCC)cc2)CN2CCCCCC2)cc1.Cl (stereo not drawn) [TCMDC-124174]	6.80 µM	5.92	6.8 µM	0 (0: NO)	–	–	–
Oc1c(C(Nc2nc3ccccc3s2)c2ccc(OC(F)F)cc2)ccc2cccnc12 (stereo not drawn) [TCMDC-124379]	24.10 µM	6.36	24.1 µM	1 (1: YES)	–	–	–
Cc1cc(Nc2ccncc2)n2nc(C)c(-c3ccc(Cl)cc3)c2n1 [TCMDC-124478]	–	6.04	>50 µM	1 (1: YES)	–	–	–
O=C(O)C(=O)O.Oc1c(CN2CCC(Cc3ccccc3)CC2)cc(Cl)c2cccnc12 [TCMDC-124594]	9.60 µM	6.22	9.6 µM	1 (1: YES)	–	–	–
Cc1ccc(-n2nc(-c3ccccc3)c3cc(C(=O)NCCN)sc32)cc1 [TCMDC-124776]	7.83 µM	5.95	7.83 µM	0 (0: NO)	–	–	–
COc1ccccc1-c1cccc(-c2cccc(NC(=O)c3ccc([N+](=O)[O-])o3)c2)n1 [TCMDC-124800]	11.47 µM	5.78	11.47 µM	0 (0: NO)	–	–	–
O=C(Nc1cccc(-c2cccc(-c3ccc(F)cc3)n2)c1)c1ccc([N+](=O)[O-])o1 [TCMDC-124807]	–	–	–	0 (0: NO)	6.94 µM	5.82	6.94 µM
CCc1nn2c(Nc3ccncc3)cc(C)nc2c1-c1ccccc1 [TCMDC-124917]	–	–	–	1 (1: YES)	–	5.72	>25 µM
Cc1cc(Nc2ccncc2)n2nc(C)c(-c3ccccc3Cl)c2n1 [TCMDC-124918]	–	–	–	1 (1: YES)	–	5.71	>25 µM
Cc1nn(CC(C)C)c2sc(C(=O)N3CCN(S(=O)(=O)c4ccc(C#N)cc4)CC3)cc12 [TCMDC-125045]	–	–	–	1 (1: YES)	–	5.68	>25 µM
COc1ccc(NC(=O)C2c3ccccc3C(=O)N(CC(C)C)C2c2cccs2)cc1OC (stereo not drawn) [TCMDC-125289]	–	–	–	1 (1: YES)	–	6.37	>25 µM
CCN(CC)CCCOC(=O)c1ccc2c(c1)-c1ccc(C(=O)OCCCN(CC)CC)c3cccc-2c13.Cl [TCMDC-125491]	–	–	–	1 (1: YES)	20.00 µM	6.85	20 µM
